For 13 molecules, IC50 results are on record in BindingDB's records for doi:10.7270/Q21J98DJ (The Scripps Research Institute Molecular Screening Center, 2014).

Broadly, the IC50 is the concentration at which inhibition is half-maximal. Low values mean inhibition by little substance, high ones a need for much substance.

In this assay the target is Disintegrin and metalloproteinase domain-containing protein 17 (Homo sapiens, UniProt P78536). As to the kind of experiment: exosite inhibitors of ADAM17, dose response, biochemical (AID 743260).
Disintegrin and metalloproteinase domain-containing protein 17, sequence (P78536 whole entry, the tested form may be a part): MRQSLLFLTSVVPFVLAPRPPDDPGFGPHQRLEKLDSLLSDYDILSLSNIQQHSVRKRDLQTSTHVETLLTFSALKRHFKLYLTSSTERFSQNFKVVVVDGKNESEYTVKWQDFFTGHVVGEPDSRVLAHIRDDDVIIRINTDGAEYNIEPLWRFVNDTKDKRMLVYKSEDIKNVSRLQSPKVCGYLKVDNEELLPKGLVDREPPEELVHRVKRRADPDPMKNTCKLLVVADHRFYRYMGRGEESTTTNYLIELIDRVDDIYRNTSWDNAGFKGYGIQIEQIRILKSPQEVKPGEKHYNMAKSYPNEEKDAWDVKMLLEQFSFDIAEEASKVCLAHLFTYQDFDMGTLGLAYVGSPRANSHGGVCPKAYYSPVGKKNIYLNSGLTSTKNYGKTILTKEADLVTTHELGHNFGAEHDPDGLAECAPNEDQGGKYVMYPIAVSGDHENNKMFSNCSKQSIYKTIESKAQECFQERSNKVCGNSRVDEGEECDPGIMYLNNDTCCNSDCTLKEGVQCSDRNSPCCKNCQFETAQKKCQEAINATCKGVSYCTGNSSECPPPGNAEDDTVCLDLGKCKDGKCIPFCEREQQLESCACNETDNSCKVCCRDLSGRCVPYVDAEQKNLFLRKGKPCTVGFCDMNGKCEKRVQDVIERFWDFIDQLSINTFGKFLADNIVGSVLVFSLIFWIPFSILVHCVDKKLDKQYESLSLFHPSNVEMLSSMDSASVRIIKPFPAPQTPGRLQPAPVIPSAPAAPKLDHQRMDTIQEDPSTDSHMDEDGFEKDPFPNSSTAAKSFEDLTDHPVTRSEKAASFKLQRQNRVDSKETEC
`CCOc1ccc(NC(=O)Cc2sc(=O)n(-c3ccccc3)c2O)cc1` yielded an IC50 of 5.73 µM. That is a single-digit micromolar value.

`Cn1c(-c2sccc2OCc2ccc(Cl)cc2Cl)n[nH]c1=S` gave an IC50 of 69.5 µM. Compared with the last molecule, the IC50 is about 12-fold higher. Then `O=C(Cc1sc(=O)n(-c2ccccc2)c1O)Nc1ccccc1` [2-(2,4-diketo-3-phenyl-thiazolidin-5-yl)-N-phenyl-acetamide], with 46.7 µM. On to `COc1cccc(C2c3oc(CO)cc(=O)c3OC(=N)C2C#N)c1` (stereo not drawn) [2-Amino-6-hydroxymethyl-4-(3-methoxy-phenyl)-8-oxo-4,8-dihydro-pyrano[3,2-b]pyran-3-carbonitrile], for which the IC50 came out at 69.5 µM.

The molecule `COc1ccc(NC(=O)c2oc3ccccc3c2NC(=O)C(C)(C)C)cc1` [3-(2,2-dimethylpropanoylamino)-N-(4-methoxyphenyl)-1-benzofuran-2-carboxamide] showed a half-maximal inhibitory concentration (IC50) of 69.5 µM. `CCOc1cc(C(c2c(C)[nH][nH]c2=O)c2c(C)[nH][nH]c2=O)ccc1O` [4-[(3-ethoxy-4-hydroxyphenyl)-(3-methyl-5-oxo-1,2-dihydropyrazol-4-yl)methyl]-5-methyl-1,2-dihydropyrazol-3-one]: the IC50 came out at 69.5 µM.

With `Cc1cccc(NNC2=c3cc(Br)ccc3=NC2=O)c1` [5-bromo-3-[2-(3-methylphenyl)hydrazinyl]indol-2-one], half-maximal inhibition (IC50) required 69.5 µM.

Take `C=c1cc(O)c(CN(C)C)c2oc(=Cc3ccco3)c(O)c12` [(2Z)-7-[(dimethylamino)methyl]-2-(furan-2-ylmethylidene)-6-hydroxy-4-methyl-1-benzofuran-3-one]: the half-inhibitory concentration (IC50) is 17 µM. The molecule `CC1CCCN(CCCNC(=O)c2coc3nc4ccccc4nc23)C1` (stereo not drawn) [MLS000046706] gave an IC50 of 69.5 µM. The molecule `O=C1OCCN1C(=O)C1=[N+](c2ccc(Br)cc2)N[C-](c2ccccc2)[C@H]1c1ccc([N+](=O)[O-])cc1` [SMR000327268] registered an IC50 of 69.5 µM. Then `CC(=NNC(=N)Sc1cc(O)n(-c2ccc(Br)cc2)c1O)c1cccs1` [[1-(4-bromophenyl)-2,5-bis(oxidanylidene)pyrrolidin-3-yl] N''-(1-thiophen-2-ylethylideneamino)carbamimidothioate], with 69.5 µM; and `CC(=NNC(=N)Sc1cc(O)n(-c2ccccc2)c1O)c1cccs1` [[2,5-bis(oxidanylidene)-1-phenyl-pyrrolidin-3-yl] N'-[(E)-1-thiophen-2-ylethylideneamino]carbamimidothioate], with 69.5 µM; and `COC(=O)c1cccc(Cn2c(Cl)c(CN=Nc3ccccc3C)sc2=O)c1` [methyl 3-[[4-chloro-5-[[(2-methylphenyl)hydrazinylidene]methyl]-2-oxo-1,3-thiazol-3-yl]methyl]benzoate], with 69.5 µM.
